Measured values: article PMC11769294, “(E)-1-(3-(3-Hydroxy-4-Methoxyphenyl)-1-(3,4,5-Trimethoxyphenyl)allyl)-1H-1,2,4-Triazole and Related Compounds: Their Synthesis and Biological Evaluation as Novel Antimitotic Agents Targeting Breast Cancer” (Pharmaceuticals, 2025)

Assays:
[1] = tested on: MDA-MB-231 breast cancer cells; assay: alamarBlue cell viability assay; assay type: cell-based; settings: Homo sapiens
Experimental: HL-60 cells were suspension cells and the seeding density for the viability assay was 25,000 cells/mL. MCF-7 cells (adherent) were cultured in Minimum Essential Media (MEM) with GlutaMAX™-I, supplemented with 1% (v/v) non-essential amino acids, 10% (v/v) fetal bovine serum (FBS), purchased from BD Biosciences (Edmund Halley Road, Oxford, UK), and 1% (v/v) penicillin/streptomycin 5000 U/mL. The MCF-7 cells used in the screening of the compounds during these experiments were mycoplasma-free. The seeding density of MCF-7 in the viability assay was 25,000 cells/mL and 50,000 cells/mL in the FACS assay. […]
The biochemical assays were performed in triplicate and on at least three independent occasions to facilitate the determination of mean values. […] Adherent cells such as MCF-7, MDA-MB-231, and MCF-10A were trypsinized to detach them from the flask, counted as previously described, and seeded in 96 well plates with a seeding density of 25,000 cells /mL (200 µL of suspension in each well so that the final number of cells per well was 5000) and 1 × 10^4 cells/well seeding density for suspension HL-60 cells. […] After 72 h, the change in color was measured by spectrofluorimetry at an excitation wavelength of 544 nm and emission wavelength of 590 nm. […]

[2] = tested on: purified bovine brain tubulin; assay: Tubulin polymerization assay; assay type: biochemical; settings: after 60 min
Experimental: The triazole 22b was selected for evaluation in the tubulin polymerization assay. Following the protocol previously described, the polymerization of purified bovine tubulin was monitored using a tubulin polymerization assay kit, BK006, (Cytoskeleton Inc., Denver, CO, USA). The assay was carried out using the purified bovine brain tubulin. Tubulin polymerization was determined spectrophotometrically by monitoring the change in turbidity since light is scattered proportionally to the concentration of polymerized microtubules in the assay. Lyophilized tubulin [128] (Cytoskeleton, Denver, CO, USA) (>99%, 3 mg/mL) was re-suspended in ice-cold G-PEM buffer (80 mM PIPES pH 6.9, […], 1 mM EGTA, 1 mM GTP, 10.2% (v/v) glycerol) and added to wells on a half volume 96-well plate containing the designated concentration of drug (10 or 30 μM). […] Samples were mixed well and the tubulin assembly was monitored at 340 nm at 30 s intervals for 60 min at 37 °C in a Spectramax 340PC spectrophotometer (Molecular Devices, San Jose, CA, USA).
Figure 13 Inhibition of tubulin polymerization in vitro by compound 22b. […] The progress of the tubulin polymerization reaction at 37 °C was monitored at 340 nm in a Spectramax 340PC spectrophotometer at 30 s intervals for 60 min. Fold inhibition of tubulin polymerization can be calculated from the Vmax value for each reaction. […]

COc1ccc(/C=C/C(c2cc(OC)c(OC)c(OC)c2)n2cncn2)cc1O (stereo not shown) [Compound 22b, (E)-5-(3-(1H-1,2,4-Triazol-1-yl)-3-(3,4,5-trimethoxyphenyl)prop-1-en-1-yl)-2-methoxyphenol] was tested, and the IC50 [1] was 0.77 µM, the IC50 ([1]; 72 h) was 0.765 ± 0.03 µM and the “reduction in the polymer mass vs vehicle” value ([2]; 10 μM) was 1.5 fold. For the same compound, the “reduction in the polymer mass vs vehicle” value ([2]; 30 μM) was 5 fold.
